From patent publication US9513294B2, “Megastokes amino-triazolyl-BODIPY compounds and applications to live neuron staining and human serum albumin FA1 drug site probing” (National University of Singapore, priority 2012, dated 2016)
Values belong to the compound of their own block, whether it stands above or below them.

Columns and labels:
[1] = Absorbance and fluorescence emission spectra (SpectraMax M2); assay type: physicochemical; conditions: for λmax Absorp. (nm) / λmax Emission (nm): MKCA compound library; for λmax Absorp. (nm) / λmax Abs. (nm): absorbance maximum; for λmax Emission (nm) / λmax Em. (nm): fluorescence emission maximum; for λmax Abs. (nm) / λmax Em. (nm): MKAC compound library
Experimental: BDC-8 (Blue): absorbance λmax=473 nm, emission λmax=585 nm; MK101-8 (Green): absorbance λmax=474 nm, emission λmax=563 nm; MKHA374-48 (Yellow): absorbance λmax=468 nm, λem=557 nm. The corresponding spectra of a reported BODIPY (BD-27; Red) are also included for comparison: absorbance λmax=551 nm, emission λmax=568 nm. The structures of BDC-8, MK101-8, MKHA374-48 and BD-27 are also depicted.
(§1) ^1H-NMR, ^19F-NMR and ^13C-NMR spectra were recorded on Bruker ACF300 (300 MHz), DPX300 (300 MHz) and AMX500 (500 MHz) spectrometers. High resolution mass spectra (ESI) were obtained on a Finnigan/MAT 95XL-T spectrometer. Spectroscopic and quantum yield data were measured on a SpectraMax M2 spectrophotometer (Molecular Devices). Data analysis was performed using GraphPrism 5.0. Analytical characterization was performed on a HPLC-MS (Agilent-1200 series) with a DAD detector and a single quadrupole mass spectrometer (6130 series) with an ESI probe. Analytical HPLC method: eluents, A: H2O (0.1% HCOOH), B: CH3CN (0.1% HCOOH), gradient 5% B to 95% B (10 min). Reverse-phase Phenomenex C18 Luna column (4.6×50 mm^2, 3.5 […]), flow rate: 1 mL/min.

[2] = Quantum yield measurements versus Acridine Yellow in EtOH; assay type: physicochemical; conditions: for φ (quantum yield): excitation 460 nm; for φ (%): quantum yield
Experimental: as §1
Quantum yields were calculated by measuring the integrated emission area of the fluorescent spectra and comparing to the area measured for Acridine Yellow in EtOH when excited at 460 nm (Φfluorescence^AcridineYellow=0.47). Quantum yields for the amino-triazolyl-BODIPYs were calculated using the equation below, where F represents the area of fluorescent emission, η is the refractive index of the solvent, and Abs is absorbance at the excitation wavelength selected for standards and samples. Emission was integrated between 510 and 700 nm.

λmax Absorp. ([1]; BDCCA library, Table 4): 467 nm
λmax Emission ([1]; BDCCA library, Table 4): 587 nm
φ (quantum yield) ([2]; BDCCA library, Table 4): 0.7%
SMILES: CCCCCC(O)c1cn(-c2ccc3n2[B-](F)(F)[N+]2=C(N4CCCCC4)C=CC2=C3c2ccc(NC(=O)CCl)cc2)nn1 (racemic) [BDCCA-69]

λmax Absorp. (nm) [1]: 466 nm
λmax Emission (nm) [1]: 569 nm
φ (%) ([2]; MKCA compound library): 4.88%
SMILES: CCCc1cn(-c2ccc3n2[B-](F)(F)[N+]2=C(N4CC(C)OC(C)C4)C=CC2=C3c2ccc(NC(=O)CCl)cc2)nn1 (stereo not drawn) [MKCA20-48]

λmax Absorp. ([1]; MK library, Table 5): 480 nm
λmax Emission ([1]; MK library, Table 5): 586 nm
φ (quantum yield) ([2]; MK library, Table 5): 0.16%
SMILES: CCCCCC(O)c1cn(-c2ccc3n2[B-](F)(F)[N+]2=C(N4CC(C)OC(C)C4)C=CC2=C3c2ccc(N)cc2)nn1 (stereo not drawn) [MK20-69]

λmax Absorp. (nm) [1]: 469 nm
λmax Emission (nm) [1]: 586 nm
φ (%) ([2]; MKCA compound library): 3.23%
SMILES: CCCCCC(O)c1cn(-c2ccc3n2[B-](F)(F)[N+]2=C(N4CC(C)OC(C)C4)C=CC2=C3c2ccc(NC(=O)CCl)cc2)nn1 (stereo not drawn) [MKCA20-69]

λmax Abs. (nm) [1]: 461 nm
λmax Em. (nm) [1]: 565 nm
φ (%) ([2]; MKAC compound library): 1.83%
SMILES: CC(=O)Nc1ccc(C2=C3C=CC(N4CCCC4)=[N+]3[B-](F)(F)n3c2ccc3-n2cc(CC(C)C)nn2)cc1 [MKAC215-43]

λmax Absorp. (nm) [1]: 464 nm
λmax Emission (nm) [1]: 562 nm
φ (%) ([2]; MKCA compound library): 30.95%
SMILES: Cc1ccccc1CNC1=[N+]2C(=C(c3ccc(NC(=O)CCl)cc3)c3ccc(-n4cc(CC5CCCCC5)nn4)n3[B-]2(F)F)C=C1 [MKCA101-8]

λmax Absorp. ([1]; BDC library, Table 2): 475 nm
λmax Emission ([1]; BDC library, Table 2): 593 nm
φ (quantum yield) ([2]; BDC library, Table 2): 0.18%
SMILES: CC(C)(C)c1cn(-c2ccc3n2[B-](F)(F)[N+]2=C(N4CCCCC4)C=CC2=C3c2ccc(N)cc2)nn1 [BDC-1]

λmax Absorp. ([1]; BDCAC library, Table 3): 459 nm
λmax Emission ([1]; BDCAC library, Table 3): 549 nm
φ (quantum yield) ([2]; BDCAC library, Table 3): 3.5%
SMILES: CC(=O)Nc1ccc(C2=C3C=CC(N4CCCCC4)=[N+]3[B-](F)(F)n3c2ccc3-n2cc(-c3cc(C(F)(F)F)cc(C(F)(F)F)c3)nn2)cc1 [BDCAC-30]

λmax Absorp. ([1]; BDCCA library, Table 4): 464 nm
λmax Emission ([1]; BDCCA library, Table 4): 584 nm
φ (quantum yield) ([2]; BDCCA library, Table 4): 0.7%
SMILES: O=C(CCl)Nc1ccc(C2=C3C=CC(N4CCCCC4)=[N+]3[B-](F)(F)n3c2ccc3-n2cc(COc3ccccc3)nn2)cc1 [BDCCA-17]

λmax Absorp. ([1]; BDCCA library, Table 4): 461 nm
λmax Emission ([1]; BDCCA library, Table 4): 586 nm
φ (quantum yield) ([2]; BDCCA library, Table 4): 0.4%
SMILES: CN(C)Cc1cn(-c2ccc3n2[B-](F)(F)[N+]2=C(N4CCCCC4)C=CC2=C3c2ccc(NC(=O)CCl)cc2)nn1 [BDCCA-2]

λmax Abs. (nm) [1]: 464 nm
λmax Em. (nm) [1]: 562 nm
φ (%) ([2]; MKAC compound library): 15.43%
SMILES: COc1ccc(OC)c(CNC2=[N+]3C(=C(c4ccc(NC(C)=O)cc4)c4ccc(-n5cc(C6CC6)nn5)n4[B-]3(F)F)C=C2)c1 [MKAC181-4]

λmax Absorp. ([1]; BDCAC library, Table 3): 467 nm
λmax Emission ([1]; BDCAC library, Table 3): 567 nm
φ (quantum yield) ([2]; BDCAC library, Table 3): 1.4%
SMILES: CCCCCCCc1cn(-c2ccc3n2[B-](F)(F)[N+]2=C(N4CCCCC4)C=CC2=C3c2ccc(NC(C)=O)cc2)nn1 [BDCAC-50]

λmax Absorp. ([1]; BDCAC library, Table 3): 467 nm
λmax Emission ([1]; BDCAC library, Table 3): 583 nm
φ (quantum yield) ([2]; BDCAC library, Table 3): 0.7%
SMILES: CC(=O)Nc1ccc(C2=C3C=CC(N4CCCCC4)=[N+]3[B-](F)(F)n3c2ccc3-n2cc(CO)nn2)cc1 [BDCAC-70]

λmax Absorp. ([1]; BDC library, Table 2): 469 nm
λmax Emission ([1]; BDC library, Table 2): 556 nm
φ (quantum yield) ([2]; BDC library, Table 2): 0.42%
SMILES: Cc1cccc(-c2cn(-c3ccc4n3[B-](F)(F)[N+]3=C(N5CCCCC5)C=CC3=C4c3ccc(N)cc3)nn2)c1 [BDC-45]

λmax Absorp. ([1]; BDCAC library, Table 3): 464 nm
λmax Emission ([1]; BDCAC library, Table 3): 588 nm
φ (quantum yield) ([2]; BDCAC library, Table 3): 1.0%
SMILES: COc1cc(OC)cc(-c2cn(-c3ccc4n3[B-](F)(F)[N+]3=C(N5CCCCC5)C=CC3=C4c3ccc(NC(C)=O)cc3)nn2)c1 [BDCAC-14]

λmax Abs. (nm) [1]: 466 nm
λmax Em. (nm) [1]: 583 nm
φ (%) ([2]; MKAC compound library): 2.40%
SMILES: CCCC(C)c1cn(-c2ccc3n2[B-](F)(F)[N+]2=C(N4CC(C)OC(C)C4)C=CC2=C3c2ccc(NC(C)=O)cc2)nn1 (stereo not drawn) [MKAC20-3]

λmax Absorp. ([1]; BDCAC library, Table 3): 467 nm
λmax Emission ([1]; BDCAC library, Table 3): 581 nm
φ (quantum yield) ([2]; BDCAC library, Table 3): 0.8%
SMILES: CC(=O)Nc1ccc(C2=C3C=CC(N4CCCCC4)=[N+]3[B-](F)(F)n3c2ccc3-n2cc(CC(C)C)nn2)cc1 [BDCAC-43]

λmax Abs. (nm) [1]: 464 nm
λmax Em. (nm) [1]: 561 nm
φ (%) ([2]; MKAC compound library): 14.0%
SMILES: COc1ccc(OC)c(CNC2=[N+]3C(=C(c4ccc(NC(C)=O)cc4)c4ccc(-n5cc(CCc6ccccc6)nn5)n4[B-]3(F)F)C=C2)c1 [MKAC181-19]
